Measurements taken from patent publication US10639376B2, “Pharmaceutical compositions having improved storage stability” (ALKERMES PHARMA IRELAND LIMITED, priority 2012, dated 2020).

Assay: Solubility of Compound 1 in vehicles with various amounts of sorbitan monolaurate
Format: physicochemical
Settings: from trend of Compound 1 concentration as a function of pH at a given SML concentration; read-out: estimated pKa
Protocol: The solubility of Compound 1 was determined in vehicles containing 10 mM pH 7 phosphate buffer, 0.2% polysorbate 20 (PS), 0.8% saline, and various amounts of sorbitan monolaurate (SML). […] At a given SML concentration, the trend of Compound 1 concentration as a function of pH is consistent with an estimated pKa of ˜7. […] The degradation of dissolved Compound 1 was further followed in the drug vehicle containing 0.50% SML and 0.2% PS.

In the case of CCCCCCCCCCCC(=O)OCN1C(=O)CCc2ccc(OCCCCN3CCN(c4cccc(Cl)c4Cl)CC3)cc21 [Compound 1], the pKa is reported as roughly 7.
